Measurements taken from PMC12430303, “Design and Evaluation of Indole-Based Schiff Bases as α-Glucosidase Inhibitors: CNN-Enhanced Docking, MD Simulations, ADMET Profiling, and SAR Analysis” (Molecules, 2025).

Key:
[1] = system: α-Glucosidase from Saccharomyces cerevisiae; test: α-glucosidase inhibition assay (pNPG substrate); assay type: biochemical; conditions: for % inhibition R1: replicate 1; for % inhibition R3: replicate 3; for % Inhibition: fixed concentration of 100 µM, mean of triplicate (± SD); for Observation (activity level, Table S9) / Observation (inhibition level, Table S7): words, based on % inhibition at 100 µM; for IC50: dose-response, mean ± SD
Description: The α-glucosidase inhibitory activity of 4a–j was evaluated using a standard enzymatic assay. α-Glucosidase from Saccharomyces cerevisiae was employed as the enzyme source, and p-nitrophenyl-α-D-glucopyranoside (pNPG) served as the substrate. The assay was conducted in a 96-well microplate format at 37 °C in 50 mM phosphate buffer (pH 6.8). Briefly, 10 µL of the test compound (dissolved in DMSO) at various concentrations was mixed with 20 µL of the enzyme solution (1 U/mL) and 50 µL of phosphate buffer. The reaction was initiated by adding 20 µL of pNPG (5 mM), and the mixture was incubated for 30 min. The reaction was terminated by adding 50 µL of 0.1 M Na2CO3, and the absorbance of the released p-nitrophenol was measured at […] using a microplate reader. […] All experiments were performed in triplicate, and the results were expressed as mean ± standard deviation (SD). Statistical significance was evaluated using one-way ANOVA followed by Tukey’s post hoc test.

α-glucosidase = target: α-glucosidase; design: method as in PMID 26398141; conditions: cited from earlier work

Row | SMILES | % inhibition R1 ([1]; 100 µM) | % inhibition R3 ([1]; 100 µM) | % Inhibition [1] | Observation (activity level, Table S9) [1] | Observation (inhibition level, Table S7) [1] | % Inhibition ([1]; 100 µM) | IC50 [1] | IC50 (α-glucosidase)
1 | COc1ccc2[nH]c(C(=O)N/N=C/c3nccs3)cc2c1 [4a, (E)-5-Methoxy-N’-(thiazol-2-ylmethylene)-1H-indole-2-carbohydrazide] | 41.141% | 33.393% | 31.75 ± 8.42% | Low activity | Low inhibition |  |  | 
2 | COc1ccc2[nH]c(C(=O)N/N=C/c3cccc(Br)c3)cc2c1 [4g, (E)-N’-(3-Bromobenzylidene)-5-methoxy-1H-indole-2-carbohydrazide] | 92.817% | 90.041% | 91.06 ± 1.25% | High activity | High inhibition |  | 10.89 ± 0.08 µM | 
3 | COc1ccc2[nH]c(C(=O)N/N=C/c3ccc([N+](=O)[O-])cc3)cc2c1 [4h, (E)-5-Methoxy-N’-(4-nitrobenzylidene)-1H-indole-2-carbohydrazide] | 90.888% | 88.949% | 89.11 ± 1.39% | High activity | High inhibition |  | 14.5 ± 0.76 µM | 
4 | COc1ccc2[nH]c(C(=O)N/N=C/c3ccc4ccccc4c3)cc2c1 [4i, (E)-5-Methoxy-N’-(naphthalen-2-ylmethylene)-1H-indole-2-carbohydrazide] | 84.106% | 84.052% | 82.73 ± 1.90% | High activity | Good inhibition |  | 19.5 ± 1.37 µM | 
5 | O=C(N/N=C/c1cc(O)c(O)c(O)c1)c1cc2ccccc2[nH]1 [(E)-N’-(3,4,5-Trihydroxybenzylidene)-1H-indole-2-carbohydrazide] |  |  |  |  |  |  |  | 2.3 µM
6 | C[C@H]1O[C@H](O[C@H]2[C@H](O)[C@@H](O)[C@@H](O[C@H]3[C@H](O)[C@@H](O)C(O)O[C@@H]3CO)O[C@@H]2CO)[C@H](O)[C@@H](O)[C@@H]1N[C@H]1C=C(CO)[C@@H](O)[C@H](O)[C@H]1O (stereo partly shown) [Acarbose, acarbose, reference compound] | 84.457% | 85.609% | 84.66 ± 0.71% |  |  |  |  | 

Now from value to molecule, other results behind:

Row | % inhibition R1 ([1]; 100 µM) | % inhibition R3 ([1]; 100 µM) | % Inhibition [1] | Observation (activity level, Table S9) [1] | Observation (inhibition level, Table S7) [1] | % Inhibition ([1]; 100 µM) | IC50 [1] | SMILES | IC50 (α-glucosidase)
7 | 34.129% | 27.265% |  | Low activity | Low inhibition | 25.37% |  | COc1ccc2[nH]c(C(=O)N/N=C/c3cccnc3)cc2c1 [4b, (E)-5-Methoxy-N’-(pyridin-3-ylmethylene)-1H-indole-2-carbohydrazide] | 
8 | 39.907% | 37.768% | 32.51 ± 8.99% | Moderate activity | Moderate inhibition |  |  | COc1ccc2[nH]c(C(=O)N/N=C/c3ccc(O)cc3)cc2c1 [4c, (E)-N’-(4-Hydroxybenzylidene)-5-methoxy-1H-indole-2-carbohydrazide] | 
9 | 37.425% | 28.540% | 27.97 ± 7.96% | Low activity | Low inhibition |  |  | COc1ccc2[nH]c(C(=O)N/N=C/c3ccc(O)c([N+](=O)[O-])c3)cc2c1 [4d, (E)-N’-(4-Hydroxy-3-nitrobenzylidene)-5-methoxy-1H-indole-2-carbohydrazide] | 
10 | 87.826% | 81.926% | 82.21 ± 4.47% | High activity | Good inhibition |  | 16.42 ± 0.08 µM | COc1ccc(/C=N/NC(=O)c2cc3cc(OC)ccc3[nH]2)c(O)c1 [4e, (E)-N’-(2-Hydroxy-4-methoxybenzylidene)-5-methoxy-1H-indole-2-carbohydrazide] | 
11 | 54.885% | 51.513% | 50.65 ± 3.86% | Moderate activity | Moderate inhibition |  |  | COc1ccc2[nH]c(C(=O)N/N=C/c3ccccc3F)cc2c1 [4f, (E)-N’-(2-Fluorobenzylidene)-5-methoxy-1H-indole-2-carbohydrazide] | 
12 | 56.471% | 49.039% | 53.23 ± 3.11% | Moderate activity | Moderate inhibition |  |  | COc1ccc2[nH]c(C(=O)N/N=C/c3ccccc3)cc2c1 [4j, (E)-N’-Benzylidene-5-methoxy-1H-indole-2-carbohydrazide] | 
